ChEMBL document CHEMBL3352660, “Design, synthesis and pharmacological evaluation of novel polycyclic heteroarene ethers as PDE10A inhibitors: part II” (Bioorg Med Chem Lett, 2014)

Experiments:
[1] = tested on: Rattus norvegicus; test: Antipsychotic activity in Sprague-Dawley rat prepulse inhibition deficit model assessed as reversal of MK-801-induced effect at 10 mg/kg, po administered 110 mins prior to MK-801 challenge relative to vehicle-treated control; assay type: functional; design: scale not given: the % may be the effect or the level left
[2] = target: High affinity 3',5'-cyclic-AMP phosphodiesterase 7A (Homo sapiens) (UniProt Q13946); test: Inhibition of human recombinant PDE7A using [3H]-cAMP as substrate at 10 uM after 30 mins by two-step radiometric assay
Chain of High affinity 3',5'-cyclic-AMP phosphodiesterase 7A (Homo sapiens) (Q13946 whole entry): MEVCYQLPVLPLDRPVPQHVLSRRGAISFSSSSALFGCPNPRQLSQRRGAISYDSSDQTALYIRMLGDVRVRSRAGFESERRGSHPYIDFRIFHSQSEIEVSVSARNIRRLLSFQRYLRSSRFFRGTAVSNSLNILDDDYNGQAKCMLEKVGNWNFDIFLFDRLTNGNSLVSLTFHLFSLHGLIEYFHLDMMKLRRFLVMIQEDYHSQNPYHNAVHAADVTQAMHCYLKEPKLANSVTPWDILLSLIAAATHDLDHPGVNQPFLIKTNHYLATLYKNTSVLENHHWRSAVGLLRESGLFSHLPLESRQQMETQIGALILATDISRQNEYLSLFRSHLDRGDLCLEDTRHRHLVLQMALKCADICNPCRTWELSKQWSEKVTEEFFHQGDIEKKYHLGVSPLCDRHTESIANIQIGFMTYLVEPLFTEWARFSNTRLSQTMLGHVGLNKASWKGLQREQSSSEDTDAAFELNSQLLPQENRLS

[3] = tested on: Rattus norvegicus; test: Antipsychotic activity in Sprague-Dawley rat psychosis model assessed as reversal of MK-801-induced stereotypy at 1 mg/kg, po administered 2 hrs prior to MK-801 challenge measured every 5 mins for 1 hr starting 15 mins post MK-801 injection relative to vehicle-treated control; assay type: functional
[4] = target: cGMP-dependent 3',5'-cyclic phosphodiesterase (Homo sapiens) (UniProt O00408); test: Inhibition of human recombinant PDE2A using cAMP as substrate at 1 uM after 30 mins by HTRF method
Chain of cGMP-dependent 3',5'-cyclic phosphodiesterase (Homo sapiens) (O00408 whole entry): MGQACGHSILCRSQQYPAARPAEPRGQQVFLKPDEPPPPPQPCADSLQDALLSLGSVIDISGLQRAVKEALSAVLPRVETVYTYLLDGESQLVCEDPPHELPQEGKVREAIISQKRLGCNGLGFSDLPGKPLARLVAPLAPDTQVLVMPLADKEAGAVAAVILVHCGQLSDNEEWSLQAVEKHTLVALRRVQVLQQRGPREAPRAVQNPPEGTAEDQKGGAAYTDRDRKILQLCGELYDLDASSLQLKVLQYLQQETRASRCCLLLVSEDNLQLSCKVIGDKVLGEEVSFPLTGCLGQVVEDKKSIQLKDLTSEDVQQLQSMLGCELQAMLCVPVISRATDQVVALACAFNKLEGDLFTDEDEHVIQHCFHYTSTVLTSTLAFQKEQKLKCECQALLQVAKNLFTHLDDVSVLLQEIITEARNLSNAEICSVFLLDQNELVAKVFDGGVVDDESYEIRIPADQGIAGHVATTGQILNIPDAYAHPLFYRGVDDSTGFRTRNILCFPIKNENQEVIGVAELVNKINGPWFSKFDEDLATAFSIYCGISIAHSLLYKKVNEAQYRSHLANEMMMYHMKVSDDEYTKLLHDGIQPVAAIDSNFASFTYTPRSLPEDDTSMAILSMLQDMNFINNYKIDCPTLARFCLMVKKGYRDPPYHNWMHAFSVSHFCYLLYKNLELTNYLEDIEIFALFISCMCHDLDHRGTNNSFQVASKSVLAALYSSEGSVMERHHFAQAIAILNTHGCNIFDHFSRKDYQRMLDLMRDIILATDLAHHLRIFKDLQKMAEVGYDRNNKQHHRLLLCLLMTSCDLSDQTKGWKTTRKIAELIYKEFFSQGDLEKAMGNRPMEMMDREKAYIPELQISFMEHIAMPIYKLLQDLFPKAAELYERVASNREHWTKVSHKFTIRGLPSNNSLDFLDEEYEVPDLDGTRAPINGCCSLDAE

[5] = target: T1, cAMP and cAMP-inhibited cGMP 3',5'-cyclic phosphodiesterase 10A (Mus musculus, UniProt Q8CA95); test: Inhibition of mouse recombinant GST-tagged PDE10A using [3H]-cAMP as substrate after 30 mins by scintillation proximity assay
T1 sequence (Q8CA95 whole entry): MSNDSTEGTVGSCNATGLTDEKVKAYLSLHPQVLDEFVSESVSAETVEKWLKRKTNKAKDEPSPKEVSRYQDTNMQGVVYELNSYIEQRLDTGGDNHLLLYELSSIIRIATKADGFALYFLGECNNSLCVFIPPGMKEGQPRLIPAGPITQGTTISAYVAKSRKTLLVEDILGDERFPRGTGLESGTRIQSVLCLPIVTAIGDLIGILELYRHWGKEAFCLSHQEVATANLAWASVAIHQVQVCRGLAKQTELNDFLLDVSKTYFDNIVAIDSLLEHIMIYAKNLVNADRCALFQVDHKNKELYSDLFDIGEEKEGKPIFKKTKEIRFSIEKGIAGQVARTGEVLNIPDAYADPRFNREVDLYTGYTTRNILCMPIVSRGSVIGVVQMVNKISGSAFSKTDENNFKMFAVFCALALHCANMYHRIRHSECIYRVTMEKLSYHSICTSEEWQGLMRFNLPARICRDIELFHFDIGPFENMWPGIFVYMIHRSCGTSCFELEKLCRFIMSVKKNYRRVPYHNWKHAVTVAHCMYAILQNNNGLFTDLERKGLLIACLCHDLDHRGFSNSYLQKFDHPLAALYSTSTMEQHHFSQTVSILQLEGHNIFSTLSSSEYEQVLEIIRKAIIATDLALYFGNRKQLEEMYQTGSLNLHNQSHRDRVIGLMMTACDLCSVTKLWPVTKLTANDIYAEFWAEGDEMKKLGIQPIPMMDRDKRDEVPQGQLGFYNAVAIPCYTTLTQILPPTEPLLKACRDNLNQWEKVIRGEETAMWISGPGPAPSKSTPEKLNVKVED

[6] = tested on: Rattus norvegicus; test: Antipsychotic activity in Sprague-Dawley rat psychosis model assessed as reversal of MK-801-induced locomotion at 3 mg/kg, po administered 2 hrs prior to MK-801 challenge measured every 5 mins for 1 hr starting 15 mins post MK-801 injection relative to vehicle-treated control; assay type: functional
[7] = target: Dual 3',5'-cyclic-AMP and -GMP phosphodiesterase 11A (Homo sapiens) (UniProt Q9HCR9); test: Inhibition of human recombinant PDE11A using [3H]-cAMP as substrate at 1 uM after 30 mins by two-step radiometric assay
Chain of Dual 3',5'-cyclic-AMP and -GMP phosphodiesterase 11A (Homo sapiens) (Q9HCR9 whole entry, looked up): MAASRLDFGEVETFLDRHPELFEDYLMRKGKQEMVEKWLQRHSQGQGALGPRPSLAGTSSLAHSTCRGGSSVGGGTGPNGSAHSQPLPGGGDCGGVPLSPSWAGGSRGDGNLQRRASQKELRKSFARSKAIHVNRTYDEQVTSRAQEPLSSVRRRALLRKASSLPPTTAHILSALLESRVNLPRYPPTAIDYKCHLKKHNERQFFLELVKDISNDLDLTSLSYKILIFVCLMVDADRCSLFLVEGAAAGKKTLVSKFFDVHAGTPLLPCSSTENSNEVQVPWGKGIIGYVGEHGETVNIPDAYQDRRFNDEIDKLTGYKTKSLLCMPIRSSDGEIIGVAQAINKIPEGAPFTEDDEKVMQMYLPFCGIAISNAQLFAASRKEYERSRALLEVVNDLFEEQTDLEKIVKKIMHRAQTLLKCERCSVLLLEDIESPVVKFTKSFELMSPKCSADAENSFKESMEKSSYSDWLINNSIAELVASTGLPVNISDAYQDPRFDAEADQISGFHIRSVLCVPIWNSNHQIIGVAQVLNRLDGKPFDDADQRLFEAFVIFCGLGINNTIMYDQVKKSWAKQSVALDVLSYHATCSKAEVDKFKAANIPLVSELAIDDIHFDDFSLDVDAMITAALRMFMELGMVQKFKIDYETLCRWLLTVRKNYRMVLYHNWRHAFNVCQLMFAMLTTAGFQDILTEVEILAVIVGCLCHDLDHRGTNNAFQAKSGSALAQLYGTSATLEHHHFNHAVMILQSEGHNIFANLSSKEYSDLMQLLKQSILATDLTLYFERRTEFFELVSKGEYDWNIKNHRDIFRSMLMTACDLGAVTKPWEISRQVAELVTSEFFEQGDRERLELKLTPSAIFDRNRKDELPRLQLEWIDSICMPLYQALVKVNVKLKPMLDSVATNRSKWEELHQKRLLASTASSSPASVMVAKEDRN

[8] = target: cGMP-dependent 3',5'-cyclic phosphodiesterase (Homo sapiens) (UniProt O00408); test: Inhibition of human recombinant PDE2A using cAMP as substrate at 10 uM after 30 mins by HTRF method
[9] = Plasma clearance in iv dosed Swiss albino mouse; assay type: ADME, organism-based
[10] = target: cGMP-specific 3',5'-cyclic phosphodiesterase (Homo sapiens) (UniProt O76074); test: Inhibition of human recombinant PDE5A using […] as substrate at 10 uM after 30 mins by scintillation proximity assay
[11] = Plasma clearance in iv dosed Sprague-Dawley rat; assay type: ADME, organism-based
[12] = tested on: Rattus norvegicus; test: Antipsychotic activity in Sprague-Dawley rat conditioned avoidance response model assessed as avoidance of shock at 10 mg/kg, po measured after 2 hrs relative to vehicle-treated control; assay type: functional
[13] = target: cAMP and cAMP-inhibited cGMP 3',5'-cyclic phosphodiesterase 10A (Homo sapiens, UniProt Q9Y233); test: Inhibition of human recombinant GST-tagged PDE10A using [3H]-cAMP as substrate at 1 uM after 30 mins by scintillation proximity assay
Chain of cAMP and cAMP-inhibited cGMP 3',5'-cyclic phosphodiesterase 10A (Homo sapiens, UniProt Q9Y233) (Q9Y233 whole entry): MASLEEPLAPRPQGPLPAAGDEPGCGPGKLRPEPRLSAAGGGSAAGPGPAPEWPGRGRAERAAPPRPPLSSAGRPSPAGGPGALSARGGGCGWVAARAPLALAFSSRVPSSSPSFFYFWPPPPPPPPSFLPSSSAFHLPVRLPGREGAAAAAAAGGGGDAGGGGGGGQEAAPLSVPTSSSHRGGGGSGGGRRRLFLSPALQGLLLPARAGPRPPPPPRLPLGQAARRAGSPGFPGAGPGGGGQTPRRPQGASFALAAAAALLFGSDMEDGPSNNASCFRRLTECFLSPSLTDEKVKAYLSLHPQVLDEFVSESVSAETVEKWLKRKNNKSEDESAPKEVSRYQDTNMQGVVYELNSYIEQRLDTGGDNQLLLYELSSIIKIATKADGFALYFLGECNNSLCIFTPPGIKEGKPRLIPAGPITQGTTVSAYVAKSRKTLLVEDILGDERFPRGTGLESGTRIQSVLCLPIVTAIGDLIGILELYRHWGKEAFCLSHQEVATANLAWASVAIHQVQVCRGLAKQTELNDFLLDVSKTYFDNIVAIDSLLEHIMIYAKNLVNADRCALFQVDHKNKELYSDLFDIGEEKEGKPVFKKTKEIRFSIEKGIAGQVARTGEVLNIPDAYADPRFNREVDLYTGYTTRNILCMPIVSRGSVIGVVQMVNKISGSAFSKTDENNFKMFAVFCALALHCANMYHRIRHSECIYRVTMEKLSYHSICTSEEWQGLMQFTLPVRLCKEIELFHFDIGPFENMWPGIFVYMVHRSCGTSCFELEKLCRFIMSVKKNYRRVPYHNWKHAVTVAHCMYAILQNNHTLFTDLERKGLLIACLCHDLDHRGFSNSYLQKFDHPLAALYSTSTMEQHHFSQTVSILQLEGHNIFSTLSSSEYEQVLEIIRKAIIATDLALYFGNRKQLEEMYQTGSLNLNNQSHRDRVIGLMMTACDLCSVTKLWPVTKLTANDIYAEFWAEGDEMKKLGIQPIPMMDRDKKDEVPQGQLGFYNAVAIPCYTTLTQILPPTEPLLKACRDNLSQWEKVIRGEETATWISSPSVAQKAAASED

[14] = tested on: Rattus norvegicus; test: Antipsychotic activity in Sprague-Dawley rat conditioned avoidance response model assessed as avoidance of shock at 2.5 mg/kg, po measured after 2 hrs relative to vehicle-treated control; assay type: functional
[15] = target: Dual 3',5'-cyclic-AMP and -GMP phosphodiesterase 11A (Homo sapiens) (UniProt Q9HCR9); test: Inhibition of human recombinant PDE11A using [3H]-cAMP as substrate at 10 uM after 30 mins by two-step radiometric assay
[16] = target: T2, cAMP and cAMP-inhibited cGMP 3',5'-cyclic phosphodiesterase 10A (Rattus norvegicus, UniProt Q9QYJ6); test: Inhibition of rat recombinant GST-tagged PDE10A using [3H]-cAMP as substrate by scintillation proximity assay
T2 sequence (Q9QYJ6 whole entry): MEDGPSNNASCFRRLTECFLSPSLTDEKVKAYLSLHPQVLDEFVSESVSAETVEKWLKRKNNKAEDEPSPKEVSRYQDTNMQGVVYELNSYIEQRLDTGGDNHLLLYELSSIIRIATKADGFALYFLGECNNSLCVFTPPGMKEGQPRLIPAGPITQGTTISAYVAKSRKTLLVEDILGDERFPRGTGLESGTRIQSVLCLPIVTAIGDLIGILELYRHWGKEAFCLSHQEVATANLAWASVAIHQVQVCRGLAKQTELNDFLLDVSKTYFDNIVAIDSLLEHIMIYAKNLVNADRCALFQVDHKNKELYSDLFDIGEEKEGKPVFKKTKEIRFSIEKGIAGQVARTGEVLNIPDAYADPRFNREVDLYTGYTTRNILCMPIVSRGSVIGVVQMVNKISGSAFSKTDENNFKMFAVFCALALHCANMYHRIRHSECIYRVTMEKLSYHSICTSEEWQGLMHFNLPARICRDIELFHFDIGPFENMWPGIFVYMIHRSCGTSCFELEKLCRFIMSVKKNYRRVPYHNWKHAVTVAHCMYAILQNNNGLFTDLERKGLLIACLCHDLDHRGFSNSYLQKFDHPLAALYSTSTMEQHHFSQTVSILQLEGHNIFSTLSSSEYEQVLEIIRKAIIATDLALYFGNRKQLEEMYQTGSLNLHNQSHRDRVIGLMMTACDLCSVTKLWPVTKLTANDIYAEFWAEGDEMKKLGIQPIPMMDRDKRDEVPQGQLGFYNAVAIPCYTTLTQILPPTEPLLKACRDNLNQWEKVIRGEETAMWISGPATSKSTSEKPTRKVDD

[17] = target: 3',5'-cyclic-AMP phosphodiesterase 4D (Homo sapiens) (UniProt Q08499); test: Inhibition of human recombinant PDE4D using [3H]-cAMP as substrate at 1 uM after 30 mins by two-step radiometric assay
Chain of 3',5'-cyclic-AMP phosphodiesterase 4D (Homo sapiens) (Q08499 whole entry): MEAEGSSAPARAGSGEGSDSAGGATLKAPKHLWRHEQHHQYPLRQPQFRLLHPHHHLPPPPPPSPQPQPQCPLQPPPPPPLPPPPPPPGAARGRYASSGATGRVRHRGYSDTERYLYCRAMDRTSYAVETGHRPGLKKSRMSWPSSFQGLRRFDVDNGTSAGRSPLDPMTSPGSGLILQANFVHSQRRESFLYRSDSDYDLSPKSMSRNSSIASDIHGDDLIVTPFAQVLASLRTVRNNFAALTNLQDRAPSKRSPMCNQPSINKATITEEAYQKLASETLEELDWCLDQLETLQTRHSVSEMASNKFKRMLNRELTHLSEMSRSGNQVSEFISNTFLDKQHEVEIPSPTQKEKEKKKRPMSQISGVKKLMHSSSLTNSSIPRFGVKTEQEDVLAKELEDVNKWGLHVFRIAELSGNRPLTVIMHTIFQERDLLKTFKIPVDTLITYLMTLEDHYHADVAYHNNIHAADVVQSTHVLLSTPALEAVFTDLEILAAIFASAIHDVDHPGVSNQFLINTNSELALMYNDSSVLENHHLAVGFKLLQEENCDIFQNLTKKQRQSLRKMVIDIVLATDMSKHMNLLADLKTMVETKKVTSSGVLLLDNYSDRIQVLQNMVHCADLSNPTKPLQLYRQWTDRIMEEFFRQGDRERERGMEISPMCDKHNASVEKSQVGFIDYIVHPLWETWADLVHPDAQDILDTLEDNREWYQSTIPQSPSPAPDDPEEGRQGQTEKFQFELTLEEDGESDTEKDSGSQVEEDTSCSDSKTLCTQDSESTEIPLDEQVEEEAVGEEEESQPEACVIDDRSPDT

inhibition [2]: 44.5%
inhibition [4]: 3.3%
IC50 [5]: 11.7 nM
inhibition [7]: 4.9%
inhibition [8]: 42.4%
clearance [9]: 68.4 mL/min/kg
inhibition [10]: 21.6%
clearance [11]: 1.6 mL/min/kg
inhibition [13]: 98%
inhibition [15]: 11.2%
IC50 [16]: 16.1 nM
inhibition [17]: 0%
Compound: Cn1cc(-c2ccc(Oc3nccnc3-c3ccncc3)cc2)c2ncccc21
Activity [1]: 88%
Activity [3]: 95%
Activity [6]: 74%
Activity [12]: 90%
Activity [14]: 64%
